Data: US6534063B1, “Methods for treating pervasive development disorders” (priority 1999, dated 2003)
No end group written: not given here.

Assays:
[1] = test system: fecal chymotrypsin (FC) levels; test: Weekly fecal chymotrypsin test during 6 months of secretin, 37 autistic children (Experiment 2); type: in vivo; settings: 6 months post-secretin administration; of 37 children, all abnormal pre-secretin
Description: (§1) In this experiment, 16 children diagnosed as having autism were administered the following Fecal Chymotrypsin Test in accordance with an embodiment of the invention. First, approximately 2 grams of stool were collected from each child and placed in a sterile container (although it is to be understood that any quantity of stool may be collected, as 2 grams of stool is not a required amount). Each stool sample was then analyzed using, e.g., an enzymatic photospectrometry analysis as is known by those skilled in the art, to determine the level of fecal chymotrypsin in the stool. Although the enzymatic photospectrophotometry process is preferred, any suitable conventional method may be used for measuring the fecal chymotrypsin levels. The measured chymotrypsin levels of the 16 autistic children are illustrated in FIG. 13.
(§2) After determining the chymotrypsin levels of the stools, each of these levels were compared with threshold chymotrypsin levels to determine if the child was likely to benefit from secretin administration. By way of example, with the fecal chymotrypsin tests of the stool samples being performed at 30° C., normal levels of chymotrypsin are deemed to lie above 8.4 U/gram, whereas pathologically abnormal levels are deemed to lie below 4.2 U/gram. In addition, chymotrypsin levels between 8.4 U/gram and 4.2 U/gram are considered equivocal, and further testing of the individual's fecal chymotrypsin levels over a period of time should be performed.
A preferred secretin infusion process includes the initial step of prepping an arm of the candidate child with an IV injection of saline. A test dose of 1 U of Secretin-Ferring is then administered to the child. […]
In this experiment, 37 autistic children with abnormal fecal chymotrypsin levels were administered secretin over the course of 6 months using the secretin infusion process described above. Their fecal chymotrypsin (FC) levels were measured weekly using the fecal chymotrypsin test described above.

fecal chymotrypsin level = test: Fecal Chymotrypsin Test after secretin infusion, 16 autistic children (Experiment 1); type: in vivo; settings: each of 16 autistic children; approximately one week after first secretin infusion, 1 U/kg IV; compared with pre-secretin levels
Description: as §1
as §2, with “In addition, chymotrypsin levels between 8.4 U/gram and 4.2 U/gram are considered equivocal, and further testing of the individual's fecal chymotrypsin levels over a period of time should be performed.” left out

[2] = test system: children diagnosed as having autism; test: CARS (Childhood Autism Rating Scale) test pre- and post-secretin (Experiment 1); type: in vivo; settings: 16 autistic children
Description: Upon determining that a given child was likely to benefit from secretin administration based on the results of the fecal chymotrypsin test, the child was administered a CARS (Childhood Autism Rating Scale) test prior to being scheduled for secretin infusion.
For each of the 16 autistic children tested, a preferred secretin infusion process according to the present invention was performed involving the administering of 1 U/kg of body weight of Secretin-Ferring for a period of nine months at intervals of approximately 6 weeks. In addition, another CARS test was administered to each of the 16 autistic children 3 weeks post secretin administration to determine if their autism had changed post infusion.
A preferred secretin infusion process includes the initial step of prepping an arm of the candidate child with an IV injection of saline. A test dose of 1 U of Secretin-Ferring is then administered to the child. Approximately one minute after infusion, the child is examined for signs of allergic reaction including rash, increased heart rate, and increase of blood pressure. […] Subsequently, each child receives a 1 U/kg of body weight infusion of Secretin-Ferring approximately every 6 weeks for 9 months. It is to be understood that any commercially available form of secretin may be used.

[3] = test system: children diagnosed with Autism; settings: secretin given as diagnostic procedure during upper gastrointestinal endoscopy; cited from earlier work

secretin (HSDGTFTSELSRLRDSARLQRLLQGLV-NH2; ends and bridges not checked; UniProt P63298 33-59, looked up) [gastrointestinal peptide hormone]
# Autistic Children w/Abnormal FC levels [1]: 1 | # Autistic Children w/Equivocal FC levels [1]: 2 | # Autistic Children w/normal FC levels [1]: 34 | fecal chymotrypsin level post-secretin administration (fecal chymotrypsin level): increased | CARS component scores (all except fear) ([2]; 3 weeks post infusion): demonstrated improvement | CARS fear component score ([2]; 3 weeks post infusion): increased | CARS scores (overall) ([2]; approximately 3 weeks after first secretin administration vs pre-secretin): overall decrease | symptoms associated with Autism [3]: ameliorating the symptoms associated with Autism
